Patent US20070128217A1 (priority 2003, published 2007)

Experiments:
[1] = system: rabbit serum obtained by immunizing a rabbit with the SARS-CoV strain Frankfurt 1; assay type: binding; set-up: Binding of a rabbit serum to linear peptides / Binding of a rabbit serum to looped peptides / Rabbit serum linear peptides / Rabbit serum looped peptides / Binding of a rabbit serum to linear peptides of protein N of SARS-CoV Urbani (Rabbit serum linear peptides) / Binding of a rabbit serum to looped/cyclic peptides of protein N of SARS-CoV Urbani (Rabbit serum looped peptides): unit not given here
[2] = system: control sera (pooled serum of ten healthy LUMC hospital workers; commercial negative donor pooled serum from the Dutch bloodbank); assay type: binding, human; set-up: Binding of Control serum LUMC to linear peptides / Binding of Control serum Blood-bank to linear peptides / Binding of Control serum LUMC to looped peptides / Binding of Control Serum Blood-Bank to Looped peptides / Binding of Control serum LUMC to linear peptides of the protein M of SARS-CoV Urbani / Binding of Control serum Blood-bank to linear peptides of the protein M of SARS-CoV Urbani / Binding of Control serum LUMC to looped peptides of the protein M of SARS-CoV Urbani / Binding of Control Serum Blood-Bank to Looped peptides of the protein M of SARS-CoV Urbani: unit not given here
[3] = system: antibodies in sera from SARS patients (sera 1a, 1b, 2, 6, 37, 62, London, SARS-yellow, SARS-green); assay type: binding, human; set-up: Binding of serum 6 to linear peptides of protein X1 of SARS-CoV Urbani / Binding of serum 37 to linear peptides of protein X1 of SARS-CoV Urbani / Binding of serum 6 to looped/cyclic peptide (PEPSCAN-ELISA) / Binding of serum 37 to looped/cyclic peptide (PEPSCAN-ELISA) / Binding of serum 37 to looped/cyclic peptides of protein X1 of SARS-CoV Urbani / Binding of serum 6 to linear peptides of protein X2 / Binding of serum 37 to linear peptides of protein X2 / Binding of serum 37 to looped/cyclic peptides of protein X2 of SARS-CoV Urbani / Binding of serum 6 to linear peptides of protein M of SARS-CoV Urbani / Binding of serum 37 to linear peptides of protein M of SARS-CoV Urbani / Binding of serum 6 to looped/cyclic peptides of protein M of SARS-CoV Urbani / Binding of serum 37 to looped/cyclic peptides of protein M of SARS-CoV Urbani / Binding of serum 6 to linear peptides of protein X3 of SARS-CoV Urbani / Binding of serum 37 to linear peptides of protein X3 of SARS-CoV Urbani / Binding of serum 37 to looped/cyclic peptides of protein X3 of SARS-CoV Urbani / Binding of serum 6 to linear peptides of protein X4 of SARS-CoV Urbani / Binding of serum 37 to linear peptides of protein X4 of SARS-CoV Urbani / Binding of serum 37 to looped/cyclic peptides of protein X4 of SARS-CoV Urbani / Binding of serum 6 to linear peptides of protein X5 of SARS-CoV Urbani / Binding of serum 37 to linear peptides of protein X5 of SARS-CoV Urbani / Binding of serum 37 to looped/cyclic peptides of protein X5 of SARS-CoV Urbani / Binding of serum 6 to linear peptides of protein N of SARS-CoV Urbani / Binding of serum 37 to linear peptides of protein N of SARS-CoV Urbani / Binding of serum 6 to linear peptide (PEPSCAN-ELISA) / Binding of serum 1a to looped/cyclic peptides of protein N of SARS-CoV Urbani / Binding of serum 1b to looped/cyclic peptides of protein N of SARS-CoV Urbani / Binding of serum 2 to looped/cyclic peptides of protein N of SARS-CoV Urbani / Binding of serum 6 to looped/cyclic peptides of protein N of SARS-CoV Urbani / Binding of serum 37 to looped/cyclic peptides of protein N of SARS-CoV Urbani / Binding of serum 62 to looped/cyclic peptides of protein N of SARS-CoV Urbani / Binding of serum London to looped/cyclic peptides of protein N of SARS-CoV Urbani / Binding of serum SARS-green to looped/cyclic peptides of protein N of SARS-CoV Urbani: unit not given here

For DSGFAAYNRYRIGNY, the “Rabbit serum linear peptides” value [1] was 0.2, the “Rabbit serum looped peptides” value [1] was 0.3 and the “Binding of Control Serum Blood-Bank to Looped peptides of the protein M of SARS-CoV Urbani” value [2] was 0.5. For the same sequence, the “Binding of Control serum Blood-bank to linear peptides of the protein M of SARS-CoV Urbani” value [2] was 0.5, the “Binding of Control serum LUMC to linear peptides of the protein M of SARS-CoV Urbani” value [2] was 0.5 and the “Binding of Control serum LUMC to looped peptides of the protein M of SARS-CoV Urbani” value [2] was 0.5. The “Binding of serum 1a to linear peptides of protein M of SARS-CoV Urbani” value [3] was 0.6, the “Binding of serum 1a to looped/cyclic peptides of protein M of SARS-CoV Urbani” value [3] was 0.8 and the “Binding of serum 1b to linear peptides of protein M of SARS-CoV Urbani” value [3] was 0.4. The “Binding of serum 1b to looped/cyclic peptides of protein M of SARS-CoV Urbani” value [3] was 0.6, the “Binding of serum 2 to linear peptides of protein M of SARS-CoV Urbani” value [3] was 0.4 and the “Binding of serum 2 to looped/cyclic peptides of protein M of SARS-CoV Urbani” value [3] was 0.6. For the same sequence, the “Binding of serum 6 to linear peptides of protein M of SARS-CoV Urbani” value [3] was 0.5, the “Binding of serum 6 to looped/cyclic peptides of protein M of SARS-CoV Urbani” value [3] was 0.6 and the “Binding of serum 37 to linear peptides of protein M of SARS-CoV Urbani” value [3] was 0.4. For the same sequence, the “Binding of serum 37 to looped/cyclic peptides of protein M of SARS-CoV Urbani” value [3] was 0.7, the “Binding of serum 62 to linear peptides of protein M of SARS-CoV Urbani” value [3] was 0.4 and the “Binding of serum 62 to looped/cyclic peptides of protein M of SARS-CoV Urbani” value [3] was 0.6. The “Binding of serum London to linear peptides of protein M of SARS-CoV Urbani” value [3] was 0.3, the “Binding of serum London to looped/cyclic peptides of protein M of SARS-CoV Urbani” value [3] was 0.2 and the “Binding of serum SARS-green to linear peptides of protein M of SARS-CoV Urbani” value [3] was 0.3. The “Binding of serum SARS-green to looped/cyclic peptides of protein M of SARS-CoV Urbani” value [3] was 0.4, the “Binding of serum SARS-yellow to linear peptides of protein M of SARS-CoV Urbani” value [3] was 0.1 and the “Binding of serum SARS-yellow to looped/cyclic peptides of protein M of SARS-CoV Urbani” value [3] was 0.8.
KILVRYNTRGNTYST was tested, and the “Rabbit serum linear peptides” value [1] was 0.7, the “Rabbit serum looped peptides” value [1] was 0.4 and the “Binding of Control Serum Blood-Bank to Looped peptides” value [2] was 0.5. The “Binding of Control serum Blood-bank to linear peptides” value [2] was 0.8, the “Binding of Control serum LUMC to linear peptides” value [2] was 0.6 and the “Binding of Control serum LUMC to looped peptides” value [2] was 0.6. For the same sequence, the “Binding of serum 1a to linear peptides of protein X5 of SARS-CoV Urbani” value [3] was 0.7, the “Binding of serum 1a to looped/cyclic peptides of protein X5 of SARS-CoV Urbani” value [3] was 0.5 and the “Binding of serum 1b to linear peptides of protein X5 of SARS-CoV Urbani” value [3] was 0.5. The “Binding of serum 1b to looped/cyclic peptides of protein X5 of SARS-CoV Urbani” value [3] was 0.3, the “Binding of serum 2 to linear peptides of protein X5 of SARS-CoV Urbani” value [3] was 0.7 and the “Binding of serum 2 to looped/cyclic peptides of protein X5 of SARS-CoV Urbani” value [3] was 0.5. The “Binding of serum 6 to linear peptides of protein X5 of SARS-CoV Urbani” value [3] was 0.7, the “Binding of serum 6 to looped/cyclic peptides of protein X5 of SARS-CoV Urbani” value [3] was 0.5 and the “Binding of serum 37 to linear peptides of protein X5 of SARS-CoV Urbani” value [3] was 0.7. The “Binding of serum 37 to looped/cyclic peptides of protein X5 of SARS-CoV Urbani” value [3] was 0.5, the “Binding of serum 62 to linear peptides of protein X5 of SARS-CoV Urbani” value [3] was 0.8 and the “Binding of serum 62 to looped/cyclic peptides of protein X5 of SARS-CoV Urbani” value [3] was 0.7. The “Binding of serum London to linear peptides of protein X5 of SARS-CoV Urbani” value [3] was 0.7, the “Binding of serum London to looped/cyclic peptides of protein X5 of SARS-CoV Urbani” value [3] was 0.3 and the “Binding of serum SARS-green to linear peptides of protein X5 of SARS-CoV Urbani” value [3] was 0.5. The “Binding of serum SARS-green to looped/cyclic peptides of protein X5 of SARS-CoV Urbani” value [3] was 0.3, the “Binding of serum SARS-yellow to linear peptides of protein X5 of SARS-CoV Urbani” value [3] was 0.1 and the “Binding of serum SARS-yellow to looped/cyclic peptides of protein X5 of SARS-CoV Urbani” value [3] was 0.6.
